Assay results: US20140309192A1, “MODULATORS OF THE G PROTEIN-COUPLED MAS RECEPTOR AND THE TREATMENT OF DISORDERS RELATED THERETO” (ARENA PHARMACEUTICALS, INC., priority 2011, published 2014)
“Also recorded” adds a separate entry of the source.

How the values were obtained:
[1] = tested on: isolated perfused rat hearts; experiment: Ex vivo coronary flow, Langendorff perfused isolated rat hearts; details: AR234960 1 μM
Experimental: Coronary flow was measured in male Mas^−/− and Mas^+/+ mice, and in male Sprague-Dawley rats using Langendorff perfused isolated hearts. Freshly isolated hearts were placed on a Langendorff apparatus (Harvard Apparatus) and perfused at a constant pressure of 80 mmHg with a modified Krebs-Henseleit buffer solution (Sigma K3753) and aerated with 95% oxygen and 5% carbon dioxide, pH 7.35-7.4. The temperature was maintained at 37° C. by surrounding the heart with a water-heated glassware chamber. Coronary flow was measured using a flow measurement system (Harvard Apparatus) which included the transit time flow meter and a flow probe built into an adaptor block located at the perfusate inflow port. Data were recorded continuously using an ISOHEART data acquisition system (Harvard Apparatus). After a 20-min equilibration period, Mas compounds were added to the perfusion buffer reservoir at the desired concentration (agonist AR234960 at 1 μM, or inverse agonist AR244555 at 5 μM) and coronary flow was recorded for 10 min
To determine the role of the Mas-Gq-PLC pathway in regulating coronary flow, the Mas inverse agonist AR244555 (5 μM) or the PLC inhibitor U-73122 (0.5 μM) was added to the perfusion buffer for 10 min and then the agonist AR234960 (1 μM) was added to the perfusion buffer. Coronary flow was recorded for another 10 min Changes in coronary flow induced by AR234960 were calculated as percentage of the coronary flow at 10 min following AR234960 treatment, relative to the coronary flow measured immediately prior to addition of AR234960. This protocol allowed for measurement of agonist mediated vasoconstrictor activity, and accounted for changes in baseline coronary flow due to inverse agonist treatment alone.
To determine whether Mas agonist-induced changes in coronary flow were endothelium-dependent, the responses in Langendorff perfused hearts were measured after chemical removal of endothelium with sodium deoxycholate. After a 20-min equilibration period, sodium deoxycholate was added to the perfusion buffer at 0.2 mg/mL for 3 min and then washed out for 10 min Mas compounds were added and coronary flow was recorded for 10 min Adenosine (1 μM), a coronary vasodilator that targets the endothelium, was used as a control to verify effective removal of endothelium.

Male Sprague-Dawley rats = experiment: Myocardial ischemia/reperfusion injury in rats, infarct size (Example 4); type: in vivo, rat
Experimental: Adult rats were anesthetized with sodium pentobarbital (50 mg/kg i.p.) and placed in the supine position on a surgery frame with a heating pad (37° C.) beneath. Rats were tracheostomized and ventilated with a SAR-830 small-animal ventilator (Model 683, Harvard Apparatus) to provide room air at a tidal volume of 2.5 mL/stroke and at a rate of 70 stroke/min. Polyethylene catheters were placed in the right internal carotid artery and the external jugular vein for measurement of mean arterial blood pressure and infusion of drug or vehicle, respectively.
Myocardial I/R injury was produced as follows. A left thoracotomy was performed approximately 20 mm from the sternum to expose the heart at the fifth intercostal space. […]
Animals were randomly divided into the following 4 groups: (1-3) low, medium, and high doses of Compound 170 administered by continuous i.v. infusion starting 30 min before coronary artery ligation (n=6 per dose), and (4) 20% HPBCD (vehicle, hydroxypropyl-β-cyclodextrin) administered by continuous i.v. infusion beginning 30 min before coronary artery ligation (n=6). […] Mean arterial blood pressure was measured after stabilization and just prior to drug infusion (baseline) and again following 25 min of drug or vehicle infusion, before coronary artery ligation. […]

Structure (SMILES)	coronary flow in isolated perfused rat hearts ([1]; AR244555 5 μM, 10 min)	compound-mediated change in coronary flow in endothelium denuded hearts ([1]; after sodium deoxycholate, adenosine 1 μM)	reduction of myocardial infarction size (Male Sprague-Dawley rats; FIG. 5, rats subjected to coronary artery ligation and reperfusion)	myocardial infarct size after reperfusion compared to vehicle treatment (Male Sprague-Dawley rats; medium (1.878 mg/kg loading + 0.492 mg/kg/h) and high dose (6.26 mg/kg loading + 1.64 mg/kg/h) i.v., 30 min ischemia, 2 h reperfusion)
COc1cc([N+](=O)[O-])ccc1S(=O)(=O)N1CC(CN2CCN(c3ccccn3)CC2)C(c2cccc(F)c2)C1 (stereo not shown) [AR234960]	decrease in coronary flow; also recorded: significantly decreased	preserved	–	–
NC(=O)[C@H](CO)NCc1ccc(C(=O)Nc2ccc(Cl)cc2N2CCN(CCC(F)(F)F)CC2)c(F)c1F [Compound 170, (S)-4-((1-Amino-3-hydroxy-1-oxopropan-2-ylamino)methyl)-N-(4-chloro-2-(4-(3,3,3-trifluoropropyl)piperazin-1-yl)phenyl)-2,3-difluorobenzamide]	–	–	dose dependent effect	significant decrease
